Reference: US6562802B2, “Medical composition and uses thereof” (Noviscens AB, priority 1996, dated 2003)

Legend:
UV B radiation = experiment: biological light protection factor against UV B radiation, erythema score on skin of volunteers; type: in vivo, human; conditions: 5.0% (w/w) in petrolatum, light exposure for 16 and 32 seconds, two volunteers
Protocol: The biological light protection factor of the sunscreen formulation was determined at two concentrations of the active agent, P-PABA. The two formulations were prepared and tested at a concentration of 5.0% and 10% (w/w). For comparison, one control sunscreen agent was also studied. The UV B protection agent, ethylhexyl-4-dimethylaminobenzoic acid (EHD-PABA) was prepared at a concentration of 5.0% (w/w) in petrolatum. The test was performed on the skin of two volunteers, under standardized conditions by application of 0.1 ml of the formulation per 100 cm^2 of skin area on their backs.
An Osram Ultravitalux lamp was used as light source. The light protection factor was determined and compared to vehicle and untreated skin after light exposure on cylindrical (1.0 cm i.d.) skin areas for 16 and 32 seconds. The results were evaluated from intensity of the erythema score (FIG. 8; A) untreated control, b) 10% P-PABA, c) 5% P-PABA, D) vehicle, and E) EHD-PABA. Light exposure as indicated on each skin area for 16 seconds (left) and 32 seconds (right)). The biological protection against UV B radiation obtained by the UV B standard EHD-PABA absorber was almost similar to the protection by the polymeric P-PABA derivative.

[1] = sunscreen index according to Kumler (UV absorbing characteristics); type: physicochemical

Molecule	protection against UV B radiation (erythema score) (UV B radiation)	Sunscreen index [1]
CCCCC(CC)COC(=O)c1ccc(N(C)C)cc1 (stereo not shown) [EHD-PABA, ethylhexyl-4-dimethylaminobenzoic acid]	insufficient at 32 seconds in one of the volunteers	
PE-N-aminobenzoic acid [P-PABA]	complete	6.2
Nc1ccc(C(=O)O)cc1 [p-aminobenzoic acid (reference), p-aminobenzoic acid]		7.4
